PubChem BioAssay (NCI)
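All cell lines were grown in 96-well plates and treated with compound for 48 hours. GI50: concentration for 50% inhibition of growth. The concentration for full growth arrest is given as TGI.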

Key:
Assay in all cases: NCI anticancer screen, dose series, 48 h
HOP-62 NSCLC = tested on: HOP-62 NSCLC
SF-295 CNS = tested on: SF-295 CNS
SF-539 CNS = tested on: SF-539 CNS
SK-MEL-2 melanoma = tested on: SK-MEL-2 melanoma
T-47D breast = tested on: T-47D breast
U251 CNS = tested on: U251 CNS
NCI-H522 lung = tested on: NCI-H522 lung
OVCAR-5 ovarian = tested on: OVCAR-5 ovarian
SN12C renal = tested on: SN12C renal

| Structure (SMILES) | TGI (HOP-62 NSCLC) [µM] | TGI (SF-295 CNS) [µM] | TGI (SF-539 CNS) [µM] | TGI (SK-MEL-2 melanoma) [µM] | TGI (T-47D breast) [µM] | TGI (U251 CNS) [µM] | TGI (NCI-H522 lung) [µM] | TGI (OVCAR-5 ovarian) [µM] | TGI (SN12C renal) [µM] | GI50 (HOP-62 NSCLC) [µM] | GI50 (NCI-H522 lung) [µM] | GI50 (OVCAR-5 ovarian) [µM] | GI50 (SF-295 CNS) [µM] | GI50 (SF-539 CNS) [µM] | GI50 (SK-MEL-2 melanoma) [µM] | GI50 (SN12C renal) [µM] | GI50 (T-47D breast) [µM] | GI50 (U251 CNS) [µM] |
| --- | --- | --- | --- | --- | --- | --- | --- | --- | --- | --- | --- | --- | --- | --- | --- | --- | --- | --- |
| COC(=O)[C@H](C)NC(=O)[C@H](NS(=O)(=O)c1nc2ccccc2s1)c1ccccc1 | 74.4 | > 100 | 30.4 | 25.2 | 32.4 | 41 | – | – | – | – | – | – | – | – | – | – | – | – |
| CC(C)(C)C(=O)c1c(O)c2ccccc2c2ccccc2c1=O | > 100 | > 100 | > 100 | > 100 | > 100 | > 100 | > 100 | > 100 | > 100 | – | – | – | – | – | – | – | – | – |
| O=C1Nc2noc(=O)nc2NO1 | > 200 | > 200 | > 200 | > 200 | > 200 | > 200 | > 200 | > 200 | > 200 | – | – | – | – | – | – | – | – | – |
| COc1cc2c(cc1O)NC(=O)[C@@H]1C[C@@H](O)CN1C2=O | > 100 | > 100 | > 100 | > 100 | > 100 | > 100 | > 100 | > 100 | > 100 | – | – | – | – | – | – | – | – | – |
| C/C(=N\NC(=S)NC(C)(C)C)c1nc2ncccc2[nH]1 | > 84.9 | > 100 | 13.6 | > 80.3 | > 33.7 | > 100 | 51.2 | > 21.7 | > 100 | – | – | – | – | – | – | – | – | – |
| C=CCOC(C)(C)C1=CCC(C)CC1 (stereo unspecified) | > 100 | > 100 | > 100 | – | – | > 100 | > 100 | > 100 | > 100 | – | – | – | – | – | – | – | – | – |
| Cc1cc2nc(N3C(=O)/C(=C/Cc4ccco4)N=C3c3ccccc3)sc2cc1C | > 100 | > 100 | > 100 | > 100 | > 100 | > 100 | – | > 100 | 87.9 | – | – | – | – | – | – | – | – | – |
| CCCCCCCCCCCCCCCCNc1nc(=O)n(C2OC(C)C(O)C2O)cc1F (stereo unspecified) | 33.8 | 43 | 33.5 | 38.9 | 43.8 | 54.4 | 39 | 36.7 | 40.6 | – | – | – | – | – | – | – | – | – |
| Cn1c2c(c3c(=O)[nH]ncc31)Cc1ccccc1-2 | > 100 | 25.7 | 78.7 | 41.8 | 78.2 | 85.8 | > 100 | > 100 | 47.9 | – | – | – | – | – | – | – | – | – |
| N#Cc1cc(F)cc(Oc2ccc(S(=O)(=O)C(F)F)c3c2CC(F)(F)[C@H]3O)c1 | > 100 | 79.2 | > 100 | 59.8 | > 100 | > 100 | 88.7 | > 100 | > 100 | 51.1 | 19.1 | 51 | 24.9 | 37 | 16.4 | 28.7 | 16.3 | 29.8 |
| O=C(OCCN=c1c2ccccc2ccc2ccccc12)c1cc([N+](=O)[O-])cc([N+](=O)[O-])c1 | > 100 | > 100 | > 100 | > 100 | > 100 | > 100 | – | > 100 | > 100 | – | – | – | – | – | – | – | – | – |
